The target in one data set is Prothrombin (Homo sapiens, UniProt P00734). Briefly: Inhibitory activity against thrombin.
In a further data set the target is Coagulation factor X (Homo sapiens, UniProt P00742). Briefly: Inhibition of coagulation factor Xa.
The next data set has as its target Serine protease 1 (Homo sapiens, UniProt P07477). The data set can be described thus: Inhibitory activity against trypsin.
Data set [1] in a line: Maximum plasma concentration was determined in rabbit at a dose of 5 mg/kg/h administered i.v. It is filed as ADME, organism-based, Oryctolagus cuniculus. Set-up: dose 5 mg/kg/h, route intravenous. The note with it: iv.
Data set [2] can be described thus: Half life period was determined. The following applies: rabbit.
Data set [3] can be described thus: The compound was evaluated for volume of distribution in rabbit at a dose of 5 mg/kg/h administered i.v. The following applies: in vivo, iv. Set-up: route intravenous. It is filed as ADME, organism-based, Oryctolagus cuniculus.
Data set [4] in a line: Plasma clearance was determined in rabbit at a dose of 5 mg/kg/h administered i.v. Further details: route intravenous. The following applies: iv. It is filed as ADME, organism-based, Oryctolagus cuniculus.

Structures are written as SMILES.

Chain of Serine protease 1 (P07477 whole entry): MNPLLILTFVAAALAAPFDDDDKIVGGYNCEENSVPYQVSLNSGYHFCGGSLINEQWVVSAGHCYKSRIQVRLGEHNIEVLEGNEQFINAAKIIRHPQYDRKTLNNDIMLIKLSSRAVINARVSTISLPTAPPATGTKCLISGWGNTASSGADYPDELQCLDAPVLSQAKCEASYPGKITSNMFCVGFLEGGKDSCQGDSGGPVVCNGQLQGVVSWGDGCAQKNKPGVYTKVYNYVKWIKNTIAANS
Chain of Coagulation factor X (P00742 41-179 limits assumed): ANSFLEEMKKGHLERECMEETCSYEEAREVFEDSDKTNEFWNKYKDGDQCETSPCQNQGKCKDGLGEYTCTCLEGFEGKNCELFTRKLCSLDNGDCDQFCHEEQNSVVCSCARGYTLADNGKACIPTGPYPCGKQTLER
Chain of Coagulation factor X (P00742 235-488 limits assumed): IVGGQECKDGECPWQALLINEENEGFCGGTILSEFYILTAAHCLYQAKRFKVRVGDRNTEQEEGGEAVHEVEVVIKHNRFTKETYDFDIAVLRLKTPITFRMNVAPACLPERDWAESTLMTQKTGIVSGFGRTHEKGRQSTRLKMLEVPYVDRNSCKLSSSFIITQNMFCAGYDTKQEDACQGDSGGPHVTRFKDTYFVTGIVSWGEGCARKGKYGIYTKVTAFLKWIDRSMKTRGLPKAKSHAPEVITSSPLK

As to `N=C(N)c1cccc(N2CCCCN(C3CCN(S(=O)(=O)c4cccc(N)c4)CC3)C2=O)c1`, the Ki on Prothrombin turned out to be 2200 nM; at Coagulation factor X, 200 nM.

Turning to `N=C(N)c1cccc(N2CCCCN(C3CCN(S(=O)(=O)c4ccccc4N)CC3)C2=O)c1`, the Ki at Prothrombin turned out to be 2400 nM; at Coagulation factor X, 34 nM; on Serine protease 1, 130 nM.

On to `N=C(N)c1cccc(N2CCCCN(C3CCN(CCc4ccccc4)CC3)C2=O)c1`, for which the values for the inhibition constant Ki at Prothrombin, on Coagulation factor X and on Serine protease 1 were 3600 nM, 220 nM and 1000 nM, respectively.

In the case of `N=C(N)c1cccc(N2CCCCN(C3CCN(C(=O)Cc4ccccc4)CC3)C2=O)c1`, the values for the inhibition constant Ki at Prothrombin and at Coagulation factor X were 11800 nM and 900 nM, respectively.

Regarding `N=C(N)c1cccc(N2CCCCN(C3CCN(Cc4cccnc4)CC3)C2=O)c1`, the figures for the Ki at Prothrombin and at Coagulation factor X were 5300 nM and 670 nM, respectively.

For `N=C(N)c1cccc(N2CCCCN(C3CCN(Cc4ccncc4)CC3)C2=O)c1`, the figures for the Ki on Prothrombin and at Coagulation factor X were 6800 nM and 200 nM, respectively.

Compound `N=C(N)c1cccc(N2CCCCN(C3CCN(S(=O)(=O)Cc4ccccc4)CC3)C2=O)c1.O=C(O)C(F)(F)F` returned a Cmax in data set [1] of 4.8 µM. Also, the figures for the Ki at Prothrombin, at Coagulation factor X and on Serine protease 1 were 500 nM, 10 nM and 80 nM, respectively. Moreover, in data set [2], the half-life is 2.4 min. Also, in data set [3], the Vd was 0.23 L/kg. In data set [4], this compound had a clearance of 68.3 mL/min/kg.

In data set [1], `Cl.N=C(N)c1cccc(N2CCCCN(C3CCN(S(=O)(=O)c4cccs4)CC3)C2=O)c1` registered a maximum concentration (Cmax) of 36 µM. The Ki is 1500 nM on Prothrombin, 12 nM at Coagulation factor X and 52 nM on Serine protease 1. Further, the half-life in data set [2] is 66 min. Besides, the Vd in data set [3] was 1.1 L/kg. The same compound showed a clearance in data set [4] of 11.3 mL/min/kg.

`N=C(N)c1cccc(N2CCCCN(C3CCN(Cc4ccccn4)CC3)C2=O)c1`: the inhibition constant (Ki) at Prothrombin is 2600 nM; at Coagulation factor X, 12 nM; at Serine protease 1 it was 120 nM.

With `N=C(N)c1cccc(N2CCCCN(C3CCN(S(=O)(=O)Cc4ccccn4)CC3)C2=O)c1.O=C(O)C(F)(F)F.O=C(O)C(F)(F)F`, the concentration in data set [1] peaked (Cmax) at 2.4 µM. Also, the Ki on Prothrombin came out at 500 nM; at Coagulation factor X, 10 nM; at Serine protease 1 it was 57 nM. In data set [2], this compound gave a half-life of 1.8 min. Also, in data set [3], the Vd was determined as 0.34 L/kg. For the same compound, in data set [4], the clearance is 132 mL/min/kg.

As for `N=C(N)c1cccc(N2CCCCN(C3CCN(S(=O)(=O)c4ccc(N)cc4)CC3)C2=O)c1`, the values for the inhibition constant Ki at Prothrombin, on Coagulation factor X and at Serine protease 1 were 6300 nM, 71 nM and 190 nM, respectively.

Take `N=C(N)c1cccc(N2CCCCN(C3CCN(S(=O)(=O)c4ccccc4)CC3)C2=O)c1`: the inhibition constant (Ki) on Prothrombin came to 1600 nM; at Coagulation factor X, 24 nM; on Serine protease 1, 60 nM.

On Prothrombin, `N=C(N)c1cccc(N2CCCCN(C3CCN(C(=O)c4ccccc4)CC3)C2=O)c1` yielded a Ki of more than 21000 nM.

For the compound `N=C(N)c1cccc(N2CCCCN(C3CCN(Cc4cccs4)CC3)C2=O)c1`, the results for the Ki on Prothrombin, on Coagulation factor X and on Serine protease 1 were 1400 nM, 80 nM and 170 nM, respectively.

For orientation: Ki means the dissociation constant of the complex between target and ligand, obtained from inhibition or displacement. A low value points to higher affinity. What is called Cmax is the highest concentration seen after dosing. As usually defined, the half-life is the time needed for the level to fall by half in the phase considered. By Vd is commonly meant a proportionality between amount in the body and measured concentration, not a real space. The low end stands for little distribution into tissue, the high end for wide distribution into tissue. As a reminder, the clearance is the rate of elimination divided by the concentration. Low readings indicate inefficient removal, high ones efficient removal.

(Values after ChEMBL document CHEMBL1133385, “The de novo design and synthesis of cyclic urea inhibitors of factor Xa: optimization of the S4 ligand” (Bioorg Med Chem Lett, 2000).)
